These results are taken from patent publication US11656224B2, “Multivalent glycan microarray platform” (Z Biotech, LLC, priority 2016, dated 2023).

For experiment [1], the target named is T1, Soybean agglutinins (SBA) lectin (Glycine max, UniProt P05046). Put plainly: SBA lectin binding to O-mucin glycan microarray (NHS PAMAM G2 glass slide). Conditions: SBA 1 μg/ml; O-mucin glycan microarray on glass; Cy3 labeled streptavidin. Here is the method:
For this purpose, a library containing 12 glycan probes representing 0-GalNAc glycan structures in mucin (Table 2) was immobilized onto a glass slide coated with PAMAM dendrimer (generation 2) terminated with NHS functional groups (Example 1). Each glycan was dissolved in a Print Buffer containing 150 mM sodium phosphate, (pH 8.5) with 100 μM concentration and printed onto the slides using ˜1 nL probe. The printing process was performed in 60% relative humidity. After printing the glycan immobilization can be enhanced by incubation at room temperature for 12 hours in 60% relative humidity.
The carbohydrate-protein interaction can be investigated by interrogating the microarray with lectins or glycan-binding proteins. In detail, first the arrayed slides were briefly rinsed in MilliQ water and then affixed into an assay chamber. The arrays were treated with a blocking buffer, such as 25 mM ethanolamine in 100 mM boric acid, 0.01% Tween 20 (pH 8.5). A biotinylated lectin (e.g., Helix pomatia Agglutinin (HPA)) or a glycan-binding protein dissolved in an Assay Buffer was subjected to the array for incubation. The Assay Buffer could be 20 mM Tris-HCl, 150 mM NaCl, 0.05% Tween 20, 1 mM CaCl2), 1 mM MgCl2, 1% BSA (pH 7.6). The protein-carbohydrate binding was detected by applying a Cy3 labeled streptavidin. The binding intensities—relative fluorescence units (RFU)—were quantified by using a fluorescence-based microarray scanner (FIG. 6).

The target of experiment [2] is T1, Soybean agglutinins (SBA) lectin. Nature of the experiment: SBA lectin binding to glycan array on polystyrene polymer slides. Conditions: SBA 10 μg/ml, PAMAM G3 NHS, Cy5 labeled streptavidin. An excerpt: (§1) (PAMAM) dendrimer generation 3 functionalized with N-hydroxysuccinimide (NHS) groups (Example 5). The glycan array was fabricated same as described in Example 7. Biotinylated lectins (e.g., SBA, FIG. 7; PNA, FIG. 8; and ConA, FIG. 9) were used for examine the binding on the glycan array by detection with a Cy5 labeled streptavidin.

The target in experiment [3] is T2, peanut agglutinin (PNA) lectin (Arachis hypogaea, UniProt P02872).
T2 sequence (P02872 24-273): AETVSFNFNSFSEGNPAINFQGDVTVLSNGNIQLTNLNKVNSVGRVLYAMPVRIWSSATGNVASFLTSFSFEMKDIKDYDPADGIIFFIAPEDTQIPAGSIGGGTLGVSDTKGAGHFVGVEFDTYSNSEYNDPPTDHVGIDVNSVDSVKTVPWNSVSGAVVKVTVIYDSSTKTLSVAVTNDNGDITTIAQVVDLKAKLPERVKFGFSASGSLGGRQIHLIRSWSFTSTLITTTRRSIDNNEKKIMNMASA
Put plainly: PNA lectin binding to glycan array on polystyrene polymer slides. Conditions: PNA 10 μg/ml, PAMAM G3 NHS, Cy5 labeled streptavidin.
Source text: as §1

Experiment [4] relates to HIV broadly neutralizing antibody 2G12. Nature of the experiment: 2G12 antibody binding to high-mannose N-glycans on hydrazide substrate with or without aniline. Particulars: aniline-coated substrate. An excerpt:
2G12 is pre-complexed with Cy3 labeled anti-Human IgG (1:4 ratio). […] 2G12 is pre-complexed with Cy3 labeled anti-Human IgG (1:4 ratio). […] CD15 antibody is detected with Alexa Fluor 555-labeled anti-mouse IgM secondary antibody. […] The aniline can serve as a catalyst to increase aldehyde-hydrazide coupling efficiency, thus enhance the immobilization capability for glycans containing free reducing-end. The use of aniline as a nucleophilic catalyst accelerates bond formation through a Schiff base intermediate (mechanism in FIG. 4D).

T1 sequence (P05046 33-285): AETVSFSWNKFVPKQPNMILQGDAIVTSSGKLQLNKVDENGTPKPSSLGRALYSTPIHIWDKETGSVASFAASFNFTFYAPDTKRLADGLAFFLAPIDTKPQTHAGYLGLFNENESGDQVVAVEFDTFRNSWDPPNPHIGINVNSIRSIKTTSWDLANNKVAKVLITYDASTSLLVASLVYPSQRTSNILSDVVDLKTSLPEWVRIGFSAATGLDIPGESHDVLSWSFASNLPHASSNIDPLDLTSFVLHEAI

In the case of H2N-TSAPDT*RPAP-NH2 (*α-GalNAc), the “binding to SBA lectin” value in experiment [1] is given as “specific binding”. As to `CC(=O)N[C@H]1[C@@H](OC[C@H](N)C(=O)O)O[C@H](CO)[C@H](O)[C@@H]1O` [Tn-Ser, α-GalNAc-Ser], the “binding to SBA lectin” value in experiment [1] is “specific binding”. H2N-APGST*APP-NH2 (*α-GalNAc): the “binding to SBA lectin” value in experiment [2] and in experiment [1] was “specific binding” throughout. As for `CC(=O)N[C@H]1[C@@H](O[C@H](C)[C@H](N)C(=O)O)O[C@H](CO)[C@H](O)[C@@H]1O` [Tn-Thr, α-GalNAc-Thr], the “binding to SBA lectin” value in experiment [2] and in experiment [1] was “specific binding” throughout. In the case of `CC(=O)NC1C(OCC(N)C(=O)O)OC(CO)C(O)C1OC1OC(CO)C(O)C(O)C1O` (stereo not drawn) [T-Ser, Galβ1-3GalNAcα1-Ser], the “binding to PNA lectin” value in experiment [3] is reported as “specific binding”. As to `CC(=O)NC1C(OC(C)C(N)C(=O)O)OC(CO)C(O)C1OC1OC(CO)C(O)C(O)C1O` (stereo not drawn) [T-Thr, Galβ1-3GalNAcα1-Thr], in experiment [3], the “binding to PNA lectin” value was “specific binding”. As to “[Manα1-2] [Manα1-2] Manα1-6(Manα1-3)Manα1-6(Manα1-2Manα1-3)Manβ1-4GlcNAcβ1-4GlcNAc-(3 isomers) [Glycan 90]”, the “binding to 2G12 antibody” value in experiment [4] is given as “specific binding”.
